Like-named read-outs stand apart in the source and are kept apart here.
Experiments:
Assay in all cases: Test E pre-/postemergence plant response
Type in all cases: in vivo
[1] = system: downy bromegrass (Bromus tectorum); conditions: scale 0 to 100, read-out: Plant response rating, Bromegrass, Downy; for pest or weed control at 16 g/ha: 16 g ai/ha; for pest or weed control at 31 g/ha: 31 g ai/ha; for pest or weed control at 62 g/ha: 62 g ai/ha; for pest or weed control at 125 g/ha: 125 g ai/ha
Outline: (§1)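 Pre-emergence: seeds sown in silt loam soil and sprayed with test chemicals in a non-phytotoxic solvent/surfactant mix. Post-emergence: plants at 2–18 cm (1- to 4-leaf stage) in peat/vermiculite medium treated with the same formulation. Visual rating versus controls after 7–21 days, 0 (no effect) to 100 (complete control).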

[2] = system: lambsquarters (Chenopodium album); conditions: scale 0 to 100, read-out: Plant response rating, Lambsquarters; for pest or weed control at 16 g/ha: 16 g ai/ha; for pest or weed control at 31 g/ha: 31 g ai/ha; for pest or weed control at 62 g/ha: 62 g ai/ha; for pest or weed control at 125 g/ha: 125 g ai/ha
Outline: as §1

[3] = system: blackgrass (Alopecurus myosuroides); conditions: scale 0 to 100, read-out: Plant response rating, Blackgrass; for pest or weed control at 16 g/ha: 16 g ai/ha; for pest or weed control at 31 g/ha: 31 g ai/ha; for pest or weed control at 62 g/ha: 62 g ai/ha; for pest or weed control at 125 g/ha: 125 g ai/ha
Outline: as §1

[4] = system: bluegrass (annual bluegrass, Poa annua); conditions: scale 0 to 100, read-out: Plant response rating, Bluegrass; for pest or weed control at 16 g/ha: 16 g ai/ha; for pest or weed control at 31 g/ha: 31 g ai/ha; for pest or weed control at 62 g/ha: 62 g ai/ha; for pest or weed control at 125 g/ha: 125 g ai/ha
Outline: as §1

[5] = system: deadnettle (henbit deadnettle, Lamium amplexicaule); conditions: scale 0 to 100, read-out: Plant response rating, Deadnettle; for pest or weed control at 16 g/ha: 16 g ai/ha; for pest or weed control at 31 g/ha: 31 g ai/ha; for pest or weed control at 62 g/ha: 62 g ai/ha; for pest or weed control at 125 g/ha: 125 g ai/ha
Outline: as §1

[6] = system: winter barley (Hordeum vulgare); conditions: post-emergence, Postemergence, scale 0 to 100, read-out: Plant response rating, Barley, Winter
Outline: as §1

[7] = system: chamomile (scentless chamomile, Matricaria inodora); conditions: Tripleurospermum inodorum, scale 0 to 100, read-out: Plant response rating, Chamomile; for pest or weed control at 16 g/ha: 16 g ai/ha; for pest or weed control at 31 g/ha: 31 g ai/ha; for pest or weed control at 62 g/ha: 62 g ai/ha; for pest or weed control at 125 g/ha: 125 g ai/ha
Outline: as §1

[8] = system: galium (catchweed bedstraw, Galium aparine); conditions: scale 0 to 100, read-out: Plant response rating, Galium; for pest or weed control at 16 g/ha: 16 g ai/ha; for pest or weed control at 31 g/ha: 31 g ai/ha; for pest or weed control at 62 g/ha: 62 g ai/ha; for pest or weed control at 125 g/ha: 125 g ai/ha
Outline: as §1

Work on `FC(F)c1cc(-c2ccccc2Oc2ncc(Cl)cn2)no1` [Compound 35, 5-chloro-2-[2-[5-(difluoromethyl)-3-isoxazolyl]phenoxy]pyrimidine] yielded a pest or weed control at 16 g/ha ([1]; post-emergence, Postemergence) of 5%, a pest or weed control at 31 g/ha ([1]; post-emergence, Postemergence) of 5% and a pest or weed control at 62 g/ha ([1]; post-emergence, Postemergence) of 15%. It also gave a pest or weed control at 125 g/ha ([1]; post-emergence, Postemergence) of 30%, a pest or weed control at 16 g/ha ([1]; pre-emergence, Preemergence) of 0% and a pest or weed control at 31 g/ha ([1]; pre-emergence, Preemergence) of 35%. It also gave a pest or weed control at 62 g/ha ([1]; pre-emergence, Preemergence) of 35%, a pest or weed control at 125 g/ha ([1]; pre-emergence, Preemergence) of 25% and a pest or weed control at 16 g/ha ([2]; post-emergence, Postemergence) of 80%. For the same compound, the pest or weed control at 31 g/ha ([2]; post-emergence, Postemergence) was 80%, the pest or weed control at 62 g/ha ([2]; post-emergence, Postemergence) was 85% and the pest or weed control at 125 g/ha ([2]; post-emergence, Postemergence) was 90%. It also gave a pest or weed control at 16 g/ha ([2]; pre-emergence, Preemergence) of 65%, a pest or weed control at 31 g/ha ([2]; pre-emergence, Preemergence) of 85% and a pest or weed control at 62 g/ha ([2]; pre-emergence, Preemergence) of 90%. The pest or weed control at 125 g/ha ([2]; pre-emergence, Preemergence) was 100%, the pest or weed control at 16 g/ha ([3]; post-emergence, Postemergence) was 20% and the pest or weed control at 31 g/ha ([3]; post-emergence, Postemergence) was 35%. The pest or weed control at 62 g/ha ([3]; post-emergence, Postemergence) was 55%, the pest or weed control at 125 g/ha ([3]; post-emergence, Postemergence) was 60% and the pest or weed control at 16 g/ha ([3]; pre-emergence, Preemergence) was 30%. It also gave a pest or weed control at 31 g/ha ([3]; pre-emergence, Preemergence) of 60%, a pest or weed control at 62 g/ha ([3]; pre-emergence, Preemergence) of 65% and a pest or weed control at 125 g/ha ([3]; pre-emergence, Preemergence) of 95%. For the same compound, the pest or weed control at 16 g/ha ([4]; post-emergence, Postemergence) was 15%, the pest or weed control at 31 g/ha ([4]; post-emergence, Postemergence) was 20% and the pest or weed control at 62 g/ha ([4]; post-emergence, Postemergence) was 40%. The pest or weed control at 125 g/ha ([4]; post-emergence, Postemergence) was 60%, the pest or weed control at 16 g/ha ([4]; pre-emergence, Preemergence) was 0% and the pest or weed control at 31 g/ha ([4]; pre-emergence, Preemergence) was 35%. The pest or weed control at 62 g/ha ([4]; pre-emergence, Preemergence) was 35%, the pest or weed control at 125 g/ha ([4]; pre-emergence, Preemergence) was 70% and the pest or weed control at 16 g/ha ([5]; post-emergence, Postemergence) was 40%. It also gave a pest or weed control at 31 g/ha ([5]; post-emergence, Postemergence) of 60%, a pest or weed control at 62 g/ha ([5]; post-emergence, Postemergence) of 70% and a pest or weed control at 125 g/ha ([5]; post-emergence, Postemergence) of 80%. For the same compound, the pest or weed control at 16 g/ha ([5]; pre-emergence, Preemergence) was 35%, the pest or weed control at 31 g/ha ([5]; pre-emergence, Preemergence) was 80% and the pest or weed control at 62 g/ha ([5]; pre-emergence, Preemergence) was 95%. For the same compound, the pest or weed control at 125 g/ha ([5]; pre-emergence, Preemergence) was 95%, the plant injury at 16 g/ha ([6]; 16 g ai/ha) was 0% and the plant injury at 31 g/ha ([6]; 31 g ai/ha) was 0%. The plant injury at 62 g/ha ([6]; 62 g ai/ha) was 5%, the plant injury at 125 g/ha ([6]; 125 g ai/ha) was 30% and the pest or weed control at 16 g/ha ([7]; post-emergence, Postemergence) was 5%. It also gave a pest or weed control at 31 g/ha ([7]; post-emergence, Postemergence) of 5%, a pest or weed control at 62 g/ha ([7]; post-emergence, Postemergence) of 5% and a pest or weed control at 125 g/ha ([7]; post-emergence, Postemergence) of 10%. It also gave a pest or weed control at 16 g/ha ([7]; pre-emergence, Preemergence) of 5%, a pest or weed control at 31 g/ha ([7]; pre-emergence, Preemergence) of 10% and a pest or weed control at 62 g/ha ([7]; pre-emergence, Preemergence) of 70%. It also gave a pest or weed control at 125 g/ha ([7]; pre-emergence, Preemergence) of 70%, a pest or weed control at 16 g/ha ([8]; post-emergence, Postemergence) of 70% and a pest or weed control at 31 g/ha ([8]; post-emergence, Postemergence) of 80%. The pest or weed control at 62 g/ha ([8]; post-emergence, Postemergence) was 75%, the pest or weed control at 125 g/ha ([8]; post-emergence, Postemergence) was 85% and the pest or weed control at 16 g/ha ([8]; pre-emergence, Preemergence) was 25%. It also gave a pest or weed control at 31 g/ha ([8]; pre-emergence, Preemergence) of 55%, a pest or weed control at 62 g/ha ([8]; pre-emergence, Preemergence) of 100% and a pest or weed control at 125 g/ha ([8]; pre-emergence, Preemergence) of 100%.

— patent US10131652B2, “Pyrimidinyloxy benzene derivatives as herbicides” (E. I. DU PONT DE NEMOURS AND COMPANY, priority 2014, dated 2018)
